The text below walks through data of ChEMBL document CHEMBL3991601, “The target landscape of clinical kinase drugs” (Science, 2017).

The source made the active and inactive calls. For most assays here, no stated cut-off is given here; in the data, actives have a measured Kd and inactives only a lower limit.

Assay [1] deals with T1, Peroxisomal acyl-coenzyme A oxidase 3 (Homo sapiens, UniProt O15254).
T1 sequence (O15254 whole entry): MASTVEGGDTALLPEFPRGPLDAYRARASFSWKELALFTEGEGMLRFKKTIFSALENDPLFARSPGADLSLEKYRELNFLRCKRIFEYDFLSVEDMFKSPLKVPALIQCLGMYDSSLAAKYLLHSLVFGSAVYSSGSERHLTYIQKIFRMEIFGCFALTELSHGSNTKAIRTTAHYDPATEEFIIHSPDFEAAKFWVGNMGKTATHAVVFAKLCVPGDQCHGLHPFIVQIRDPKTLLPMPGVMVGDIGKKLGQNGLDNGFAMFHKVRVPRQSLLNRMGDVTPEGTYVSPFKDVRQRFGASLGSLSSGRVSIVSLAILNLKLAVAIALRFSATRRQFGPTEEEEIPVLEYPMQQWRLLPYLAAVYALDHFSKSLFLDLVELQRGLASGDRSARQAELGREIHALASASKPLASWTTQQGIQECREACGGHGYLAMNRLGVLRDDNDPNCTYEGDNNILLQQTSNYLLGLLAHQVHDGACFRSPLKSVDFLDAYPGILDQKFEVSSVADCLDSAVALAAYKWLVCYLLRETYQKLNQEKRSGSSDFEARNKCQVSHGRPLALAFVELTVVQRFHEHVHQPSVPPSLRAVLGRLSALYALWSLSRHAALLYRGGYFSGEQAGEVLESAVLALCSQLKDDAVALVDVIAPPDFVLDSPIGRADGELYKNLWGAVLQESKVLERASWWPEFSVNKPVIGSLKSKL

Assay [2] deals with T2, Breakpoint cluster region protein (Homo sapiens, UniProt P11274).
T2 sequence (P11274 whole entry): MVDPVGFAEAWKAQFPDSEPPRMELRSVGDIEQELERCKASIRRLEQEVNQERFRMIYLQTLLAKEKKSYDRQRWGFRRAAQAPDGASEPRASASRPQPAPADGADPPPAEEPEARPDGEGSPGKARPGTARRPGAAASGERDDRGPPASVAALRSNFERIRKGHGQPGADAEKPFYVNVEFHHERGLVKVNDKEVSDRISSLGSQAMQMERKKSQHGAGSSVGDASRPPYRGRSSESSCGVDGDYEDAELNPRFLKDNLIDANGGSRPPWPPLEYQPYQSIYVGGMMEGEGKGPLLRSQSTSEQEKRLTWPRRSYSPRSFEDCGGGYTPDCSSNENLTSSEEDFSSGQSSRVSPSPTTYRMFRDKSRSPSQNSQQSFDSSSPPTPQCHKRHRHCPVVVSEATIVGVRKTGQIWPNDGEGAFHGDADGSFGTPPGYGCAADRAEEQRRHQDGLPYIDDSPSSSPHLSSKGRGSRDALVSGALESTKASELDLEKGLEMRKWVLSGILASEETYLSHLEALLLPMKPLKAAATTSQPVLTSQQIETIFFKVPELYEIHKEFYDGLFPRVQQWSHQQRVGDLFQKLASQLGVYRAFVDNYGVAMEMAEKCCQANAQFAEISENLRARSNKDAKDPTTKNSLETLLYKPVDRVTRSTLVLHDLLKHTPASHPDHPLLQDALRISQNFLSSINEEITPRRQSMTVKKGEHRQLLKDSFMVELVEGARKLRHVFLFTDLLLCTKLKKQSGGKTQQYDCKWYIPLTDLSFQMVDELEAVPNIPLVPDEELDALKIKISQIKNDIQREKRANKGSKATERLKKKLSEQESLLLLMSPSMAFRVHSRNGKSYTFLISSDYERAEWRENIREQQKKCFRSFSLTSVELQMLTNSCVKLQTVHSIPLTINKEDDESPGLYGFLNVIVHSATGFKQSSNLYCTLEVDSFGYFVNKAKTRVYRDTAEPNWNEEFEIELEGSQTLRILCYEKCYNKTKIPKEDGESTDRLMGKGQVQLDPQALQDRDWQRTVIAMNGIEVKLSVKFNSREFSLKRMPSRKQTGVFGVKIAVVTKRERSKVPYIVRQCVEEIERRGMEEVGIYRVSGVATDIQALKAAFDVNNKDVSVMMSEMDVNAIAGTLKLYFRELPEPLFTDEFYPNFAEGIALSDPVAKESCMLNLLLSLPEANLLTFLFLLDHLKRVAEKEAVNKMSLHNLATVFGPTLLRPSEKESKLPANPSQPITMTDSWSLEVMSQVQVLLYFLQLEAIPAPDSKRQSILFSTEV

The target of assay [3] is Calcium/calmodulin-dependent protein kinase type II subunit delta (Homo sapiens, UniProt Q13557).
For assay [4], the target named is Dual specificity protein kinase CLK1 (Homo sapiens, UniProt P49759).
The target in assay [5] is Tyrosine-protein kinase CSK (Homo sapiens, UniProt P41240).
Assay [6] concerns the target Ephrin type-A receptor 5 (Homo sapiens, UniProt P54756).
For assay [7], the target named is T3, ATP-dependent 6-phosphofructokinase, platelet type (Homo sapiens, UniProt Q01813).
T3 sequence (Q01813 whole entry): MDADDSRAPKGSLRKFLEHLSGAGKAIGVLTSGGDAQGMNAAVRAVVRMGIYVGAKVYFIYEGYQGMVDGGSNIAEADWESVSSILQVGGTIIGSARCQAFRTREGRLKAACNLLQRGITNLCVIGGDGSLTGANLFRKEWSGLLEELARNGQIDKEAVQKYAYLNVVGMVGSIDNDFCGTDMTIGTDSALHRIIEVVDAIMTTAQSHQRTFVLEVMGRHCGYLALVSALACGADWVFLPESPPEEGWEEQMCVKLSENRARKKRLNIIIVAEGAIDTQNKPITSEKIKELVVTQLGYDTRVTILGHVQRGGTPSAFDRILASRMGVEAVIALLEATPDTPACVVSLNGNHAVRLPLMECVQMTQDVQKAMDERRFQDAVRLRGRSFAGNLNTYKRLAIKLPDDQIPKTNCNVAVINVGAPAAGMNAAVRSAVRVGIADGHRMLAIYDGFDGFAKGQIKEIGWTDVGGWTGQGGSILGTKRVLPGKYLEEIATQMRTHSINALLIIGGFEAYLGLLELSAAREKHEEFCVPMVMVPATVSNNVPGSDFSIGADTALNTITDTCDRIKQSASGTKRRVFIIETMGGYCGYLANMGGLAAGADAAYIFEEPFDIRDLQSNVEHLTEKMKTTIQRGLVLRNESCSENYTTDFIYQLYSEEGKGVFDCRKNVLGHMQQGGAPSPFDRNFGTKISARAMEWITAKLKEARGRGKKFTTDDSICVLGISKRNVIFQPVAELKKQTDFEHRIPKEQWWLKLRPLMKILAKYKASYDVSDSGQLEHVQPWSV

Calcium/calmodulin-dependent protein kinase type II subunit delta, sequence (Q13557 whole entry): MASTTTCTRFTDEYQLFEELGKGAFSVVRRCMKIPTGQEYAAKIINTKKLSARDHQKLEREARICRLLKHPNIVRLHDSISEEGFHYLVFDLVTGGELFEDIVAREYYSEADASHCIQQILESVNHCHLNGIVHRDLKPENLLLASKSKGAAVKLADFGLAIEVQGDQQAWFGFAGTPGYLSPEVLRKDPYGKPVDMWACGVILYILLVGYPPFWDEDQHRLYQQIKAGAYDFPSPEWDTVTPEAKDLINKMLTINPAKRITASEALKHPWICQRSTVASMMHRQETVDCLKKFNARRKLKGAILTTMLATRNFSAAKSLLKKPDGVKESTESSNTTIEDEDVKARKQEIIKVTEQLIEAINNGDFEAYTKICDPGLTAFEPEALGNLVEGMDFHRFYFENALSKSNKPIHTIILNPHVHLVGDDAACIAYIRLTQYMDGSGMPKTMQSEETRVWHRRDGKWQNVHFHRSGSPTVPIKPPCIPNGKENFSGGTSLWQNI
Dual specificity protein kinase CLK1, sequence (P49759 whole entry): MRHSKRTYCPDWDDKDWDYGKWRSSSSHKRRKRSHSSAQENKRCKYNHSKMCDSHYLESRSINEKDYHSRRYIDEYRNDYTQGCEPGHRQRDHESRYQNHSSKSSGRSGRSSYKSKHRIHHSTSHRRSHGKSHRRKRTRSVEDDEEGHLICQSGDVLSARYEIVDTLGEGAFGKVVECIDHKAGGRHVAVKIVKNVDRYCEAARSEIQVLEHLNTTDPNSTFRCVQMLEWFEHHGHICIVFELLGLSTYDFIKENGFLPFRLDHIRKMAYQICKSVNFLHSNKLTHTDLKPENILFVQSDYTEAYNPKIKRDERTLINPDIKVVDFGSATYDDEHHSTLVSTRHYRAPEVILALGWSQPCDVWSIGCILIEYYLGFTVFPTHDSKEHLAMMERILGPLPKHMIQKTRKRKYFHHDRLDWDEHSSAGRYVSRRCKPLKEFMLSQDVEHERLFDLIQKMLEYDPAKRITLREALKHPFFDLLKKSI
Ephrin type-A receptor 5, sequence (P54756 whole entry): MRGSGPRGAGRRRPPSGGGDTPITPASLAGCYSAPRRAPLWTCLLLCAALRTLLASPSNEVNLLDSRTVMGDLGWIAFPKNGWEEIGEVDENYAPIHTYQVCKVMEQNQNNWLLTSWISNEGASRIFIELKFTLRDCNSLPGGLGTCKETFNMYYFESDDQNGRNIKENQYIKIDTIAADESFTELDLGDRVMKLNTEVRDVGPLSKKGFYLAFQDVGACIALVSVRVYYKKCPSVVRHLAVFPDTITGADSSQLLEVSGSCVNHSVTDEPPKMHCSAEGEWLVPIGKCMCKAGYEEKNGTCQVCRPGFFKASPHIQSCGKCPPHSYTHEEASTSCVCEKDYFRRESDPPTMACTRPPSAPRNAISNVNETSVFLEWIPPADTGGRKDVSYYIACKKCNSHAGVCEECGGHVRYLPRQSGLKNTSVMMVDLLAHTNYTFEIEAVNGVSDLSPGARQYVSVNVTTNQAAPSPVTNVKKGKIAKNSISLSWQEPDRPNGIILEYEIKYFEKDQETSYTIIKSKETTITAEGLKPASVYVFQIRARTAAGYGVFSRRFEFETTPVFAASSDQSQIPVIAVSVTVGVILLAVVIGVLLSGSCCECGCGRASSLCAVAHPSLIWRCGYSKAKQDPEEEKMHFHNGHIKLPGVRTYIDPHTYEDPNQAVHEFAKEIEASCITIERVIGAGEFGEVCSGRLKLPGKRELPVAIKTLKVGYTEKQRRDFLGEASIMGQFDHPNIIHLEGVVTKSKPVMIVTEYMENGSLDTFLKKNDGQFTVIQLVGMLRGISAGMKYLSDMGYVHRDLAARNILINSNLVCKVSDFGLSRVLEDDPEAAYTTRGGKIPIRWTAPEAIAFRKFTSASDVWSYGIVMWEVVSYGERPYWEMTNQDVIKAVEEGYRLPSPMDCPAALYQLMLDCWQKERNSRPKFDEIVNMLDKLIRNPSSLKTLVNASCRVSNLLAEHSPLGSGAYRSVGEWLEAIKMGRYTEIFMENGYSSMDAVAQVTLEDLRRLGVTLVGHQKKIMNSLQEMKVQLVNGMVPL
Tyrosine-protein kinase CSK, sequence (P41240 whole entry): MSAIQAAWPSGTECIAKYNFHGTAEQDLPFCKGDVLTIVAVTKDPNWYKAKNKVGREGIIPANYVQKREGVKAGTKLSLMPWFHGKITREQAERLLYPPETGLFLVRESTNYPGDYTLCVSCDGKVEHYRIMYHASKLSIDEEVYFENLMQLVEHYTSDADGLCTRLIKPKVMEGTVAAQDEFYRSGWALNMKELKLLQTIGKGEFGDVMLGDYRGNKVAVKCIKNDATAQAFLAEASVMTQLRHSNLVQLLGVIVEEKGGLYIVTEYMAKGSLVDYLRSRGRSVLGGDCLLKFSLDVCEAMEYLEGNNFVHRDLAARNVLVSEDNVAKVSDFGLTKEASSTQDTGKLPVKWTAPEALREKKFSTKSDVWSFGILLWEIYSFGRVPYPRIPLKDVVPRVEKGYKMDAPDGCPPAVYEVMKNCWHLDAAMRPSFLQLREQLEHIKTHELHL

By Kd is commonly meant the constant that tells how readily two partners part at equilibrium. With `CC(=O)c1cnc2ccc(-c3cc(Cl)c(O)c(Cl)c3)nc2c1N[C@H]1CC[C@H](CN(C)C)CC1`, the Kd in assay [1] was > 30 µM (inactive); in assay [2], 0.014 µM (active); in assay [3] it was > 30 µM (inactive); in assay [4] it was 0.011 µM (active); in assay [5], > 30 µM (inactive); in assay [6], 0.075 µM (active). The Kd in assay [7] is > 30 µM (inactive).
For `CCNC(=O)C#Cc1ccc2c(c1)NC(=O)/C2=C(\Nc1ccc(CN(C)C)cc1)c1ccccc1`, the Kd in assay [1], in assay [2], in assay [3], in assay [4], in assay [5] and in assay [6] was > 30 µM (inactive) throughout. Moreover, in assay [7], the Kd is > 30 µM (inactive).
Turning to `C=CC(=O)N1CCC[C@H](n2c(=O)n(-c3ccc(Oc4ccccc4)cc3)c3c(N)ncnc32)C1`, the Kd was > 30 µM (inactive) in assay [1]; > 30 µM (inactive) in assay [2]; > 30 µM (inactive) in assay [3]; > 30 µM (inactive) in assay [4]; 0.007 µM in assay [5]; > 30 µM (inactive) in assay [6]. In addition, the Kd in assay [7] was > 30 µM (inactive).
As to `COCc1c(-c2ccc(NC(=O)Nc3cc(C(F)(F)F)ccc3F)c(F)c2)c2c(N)ncnn2c1CN1CCOCC1`, the Kd in assay [1] is > 30 µM (inactive); in assay [2], 4.21 µM (active); in assay [3], > 30 µM (inactive); in assay [4], > 30 µM (inactive); in assay [5], > 30 µM (inactive); in assay [6] it was > 30 µM (inactive). Further, the Kd in assay [7] is > 30 µM (inactive).
`O=C(Nc1c[nH]nc1-c1nc2cc(CN3CCOCC3)ccc2[nH]1)NC1CC1` [AT-9283]: the Kd in assay [1] is > 30 µM (inactive); in assay [2], 0.156 µM (active); in assay [3], > 30 µM (inactive); in assay [4], 2.04 µM (active); in assay [6] it was > 30 µM (inactive); in assay [7] it was > 30 µM (inactive).
`NC(=O)Nc1cc(-c2cccc(F)c2)sc1C(=O)N[C@H]1CCCNC1` [AZD-7762]: the Kd in assay [1], in assay [3], in assay [4], in assay [6] and in assay [7] was > 30 µM (inactive) each time.
As for `C#Cc1cccc(Nc2ncnc3cc(OC)c(OCCCCCCC(=O)NO)cc23)c1` [CUDC-101], the Kd in assay [1], in assay [2], in assay [3], in assay [4], in assay [5] and in assay [6] was > 30 µM (inactive) in each case.
Regarding `CC(C)(C)c1nc(-c2cccc(NS(=O)(=O)c3c(F)cccc3F)c2F)c(-c2ccnc(N)n2)s1` [DABRAFENIB], the Kd is > 30 µM (inactive) in assay [1]; > 30 µM (inactive) in assay [2]; > 30 µM (inactive) in assay [3]; > 30 µM (inactive) in assay [4]; 0.851 µM (active) in assay [5]; > 30 µM (inactive) in assay [7].
`O=C(Nc1cc(C(F)(F)F)cc(C(F)(F)F)c1)c1cc(Cl)ccc1O` [IMD-0354]: the Kd in assay [1], in assay [2], in assay [3], in assay [4], in assay [5] and in assay [6] was > 30 µM (inactive) in each case.
`Cn1cc(-c2cnc3ccc4ccc(CS(=O)(=O)NCc5ccccn5)cc4c(=O)c3c2)cn1` [MK-8033]: the Kd in assay [1], in assay [2], in assay [3], in assay [4], in assay [5] and in assay [6] was > 30 µM (inactive) each time.
With `Cc1nc(Nc2n[nH]c3c2CN(C(=O)N[C@H](CN(C)C)c2ccccc2)C3(C)C)c2sccc2n1` [PF-03758309], the Kd in assay [1] was > 30 µM (inactive); in assay [2], 1.28 µM (active); in assay [4], 0.09 µM (active); in assay [5], > 30 µM (inactive); in assay [6], > 30 µM (inactive); in assay [7], > 30 µM (inactive).
As for `CC(=O)NCC(=O)N1[C@@H]2CC[C@H]1c1ccc(Nc3ncc(C(F)(F)F)c(NC4CCC4)n3)cc12` [PF-03814735], the Kd in assay [1] was > 30 µM (inactive); in assay [2], 10.8 µM (active); in assay [4], > 30 µM (inactive); in assay [5], > 30 µM (inactive); in assay [6], > 30 µM (inactive); in assay [7] it was > 30 µM (inactive).
As to `CO[C@H]1C[C@@H]2CC[C@@H](C)[C@@](O)(O2)C(=O)C(=O)N2CCCC[C@H]2C(=O)O[C@H]([C@H](C)C[C@@H]2CC[C@@H](OP(C)(C)=O)[C@H](OC)C2)CC(=O)[C@H](C)/C=C(\C)[C@@H](O)[C@@H](OC)C(=O)[C@H](C)C[C@H](C)/C=C/C=C/C=C/1C` [RIDAFOROLIMUS], the Kd in assay [1], in assay [2], in assay [3], in assay [4], in assay [5] and in assay [6] was > 30 µM (inactive) throughout.
As for `Cn1cc(-c2cnn3c(N)c(Br)c([C@@H]4CCCNC4)nc23)cn1` [SCH-900776], the Kd in assay [1], in assay [2], in assay [3], in assay [4], in assay [5] and in assay [6] was > 30 µM (inactive) throughout.
